Assay results as given in patent US10407435B2, “Diheteroaryl histone deacetylase inhibitors and their use in therapy” (Karus Therapeutics Limited, priority 2014, dated 2019).

Key:
[1] = Plasma clearance following IV dosing, CD1 mice (Example 3 of WO 2010/086646 protocol); assay type: in vivo; details: mouse, male CD1 mice, 5 mg/kg intravenously, 10% NMP/90% water
Experimental: Compound was administered both intravenously and orally to mice. Blood samples were collected at up to 7 time points over 8 hours and plasma was analysed by LC-MS/MS to determine the concentration of compound at each time point. The plasma time concentration profile was delivered along with the main calculated PK parameters (Co, Cmax, AUC-last, t1/2, tmax, Vd, and CL).
Three male CD1 mice, 25-30 g, were dosed per administration route per timepoint. Compound was administered both orally (10 mg compound per kg of body weight) and intravenously (5 mg compound per kg body weight). The excipient used was 10% NMP/90% water. Animals were given free access to food throughout the study.
At the following time points, the animals were anaesthetized, blood collected in heparinized tubes and animals were sacrificed:
Blood samples were centrifuged to obtain the plasma, which was transferred to a separate, labelled container. Aliquots from the individual time points for the three animals were analyzed singly. Protein was precipitated by adding three volumes of methanol and centrifuging for 30 min at 4° C. […] The plasma samples were quantified by LC-MS/MS and the concentration of compound in plasma was reported in μg/mL. Pharmacokinetic parameters were calculated employing non-compartmental model analysis.

[2] = Plasma clearance following IV dosing, CD1 mouse (Example A of WO 2014/072714 protocol); assay type: in vivo; details: male CD1 mouse, 5 mg/kg I.V., 10% DMSO, 15% Cremophor, 75% Saline
Experimental: Formulation: Solutions in 10% DMSO, 15% Cremophor, 75% Saline
Dosing: 10 mg/kg P.O. and 5 mg/kg I.V.
Protocol: • n=3 male mice per time point per route; • Terminal blood sampling at 8 time points (5 min, 10 min, 0.5 hr, 1 hr, 3 hr, 6 hr, 8 hr and, 24 hr); • Collection of plasma, bio-analysis and report of AUC, AUMC, Vss, CL, half life, MRT and bioavailability.

[3] = molecular target: HDAC1 (Homo sapiens, UniProt Q13547); assay: Biochemical Selectivity: HDAC1 inhibition
Chain of HDAC1 (Q13547 whole entry, species assumed): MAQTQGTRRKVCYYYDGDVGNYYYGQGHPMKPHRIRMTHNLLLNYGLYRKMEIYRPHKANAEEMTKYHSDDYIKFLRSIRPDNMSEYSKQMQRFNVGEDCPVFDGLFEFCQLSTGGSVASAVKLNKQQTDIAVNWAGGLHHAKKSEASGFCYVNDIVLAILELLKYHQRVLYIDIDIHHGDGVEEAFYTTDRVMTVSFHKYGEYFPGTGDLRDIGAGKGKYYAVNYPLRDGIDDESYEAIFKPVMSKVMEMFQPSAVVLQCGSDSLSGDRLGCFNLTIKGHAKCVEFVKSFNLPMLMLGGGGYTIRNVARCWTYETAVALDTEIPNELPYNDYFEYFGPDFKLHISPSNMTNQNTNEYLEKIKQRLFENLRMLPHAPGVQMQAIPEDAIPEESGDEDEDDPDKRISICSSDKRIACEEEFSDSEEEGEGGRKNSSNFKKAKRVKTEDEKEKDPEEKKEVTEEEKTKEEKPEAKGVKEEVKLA
From the text: (§1) Compounds of the invention may be tested for HDAC inhibitory activity by any suitable assay, e.g. the assay described in WO2008/062201.

[4] = molecular target: T1, HDAC6 (Homo sapiens, UniProt Q9UBN7); assay: Biochemical Selectivity: HDAC6 inhibition
T1 sequence (Q9UBN7 1-1215): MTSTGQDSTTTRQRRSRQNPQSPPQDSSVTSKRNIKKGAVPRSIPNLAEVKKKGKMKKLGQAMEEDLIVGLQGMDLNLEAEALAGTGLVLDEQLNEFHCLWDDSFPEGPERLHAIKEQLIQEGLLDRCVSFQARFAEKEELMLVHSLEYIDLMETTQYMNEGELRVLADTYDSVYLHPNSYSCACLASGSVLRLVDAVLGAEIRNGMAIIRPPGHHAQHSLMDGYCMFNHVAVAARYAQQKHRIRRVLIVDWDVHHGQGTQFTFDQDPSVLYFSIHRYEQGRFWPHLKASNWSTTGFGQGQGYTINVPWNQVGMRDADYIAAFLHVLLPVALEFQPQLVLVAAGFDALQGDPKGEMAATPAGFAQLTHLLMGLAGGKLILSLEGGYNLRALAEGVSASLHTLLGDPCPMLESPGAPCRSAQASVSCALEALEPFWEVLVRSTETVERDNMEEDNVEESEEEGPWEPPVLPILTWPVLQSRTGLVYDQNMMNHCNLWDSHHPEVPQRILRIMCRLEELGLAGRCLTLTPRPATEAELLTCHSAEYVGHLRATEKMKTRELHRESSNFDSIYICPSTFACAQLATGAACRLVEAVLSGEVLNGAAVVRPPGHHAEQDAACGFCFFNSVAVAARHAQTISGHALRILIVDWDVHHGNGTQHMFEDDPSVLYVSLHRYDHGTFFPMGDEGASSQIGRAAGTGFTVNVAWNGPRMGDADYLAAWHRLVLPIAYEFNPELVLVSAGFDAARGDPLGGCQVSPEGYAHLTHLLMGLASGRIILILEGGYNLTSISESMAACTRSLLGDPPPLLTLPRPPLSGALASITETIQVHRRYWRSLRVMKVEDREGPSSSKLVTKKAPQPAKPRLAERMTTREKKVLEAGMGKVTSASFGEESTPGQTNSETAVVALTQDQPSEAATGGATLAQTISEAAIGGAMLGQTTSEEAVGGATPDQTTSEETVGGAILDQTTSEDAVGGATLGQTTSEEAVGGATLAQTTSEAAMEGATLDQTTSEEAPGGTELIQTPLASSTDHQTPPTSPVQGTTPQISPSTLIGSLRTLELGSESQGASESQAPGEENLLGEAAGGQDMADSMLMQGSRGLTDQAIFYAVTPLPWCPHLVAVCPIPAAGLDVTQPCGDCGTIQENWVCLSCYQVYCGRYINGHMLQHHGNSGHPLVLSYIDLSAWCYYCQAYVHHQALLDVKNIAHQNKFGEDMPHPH
From the text: as §1

[5] = Plasma clearance following IV dosing, Balb/c mice (Example D protocol); assay type: in vivo; details: mouse, male Balb/c mice, 3 mg/kg i.v., 5% NMP, 5% solutol HS-15 in 90% HPβCD solution
Experimental: A group of eighteen male Balb/c mice were divided into two groups Group 1 (3 mg/kg; i.v.), Group 2 (10 mg/kg; p.o.) with each group comprising of nine mice. Animals in Group 1 were administered intravenously with Example D solution formulation in 5% NMP, 5% solutol HS-15 in 90% HPβCD solution (20% HPβCD in RO water) at 3 mg/kg dose while animals in Group 2 were administered orally with 10 mg/kg solution formulation of Example D in 5% NMP, 5% solutol HS-15 in 90% HPβCD solution (20% HPβCD in RO water). Blood samples (approximately 60 μL) were collected from retro orbital plexus under light isoflurane anesthesia such that the samples were obtained at pre-dose, 0.08, 0.25, 0.5, 1, 2, 4, 8 and 24 hr (i.v.) and pre-dose, 0.25, 0.5, 1, 2, 4, 6, 8 and 24 hr (p.o.). The blood samples were collected from set of three mice at each time point in labeled micro centrifuge tube containing K2EDTA as anticoagulant. Plasma samples were separated by centrifugation of whole blood and stored below −70° C. until bioanalysis. All samples were processed for analysis by protein precipitation using acetonitrile (ACN) and analyzed with fit for purpose LC/MS/MS method (LLOQ: 1.27 ng/mL). Pharmacokinetic parameters were calculated using the non-compartmental analysis tool of Phoenix WinNonlin (Version 6.3).

Row | SMILES | clearance [1] [mL/min/kg] | clearance [2] [mL/min/kg] | IC50 [3] [nM] | IC50 [4] [nM] | clearance [5] [mL/min/kg]
1 | O=C(CCCCCCN(c1ccccn1)c1ccccn1)NO [Example 3 of WO 2010/086646] | 374 |  |  |  | 
2 | Cc1nsc(N(CCCCCCC(=O)NO)c2ccccn2)n1 [Example A of WO 2014/072714] |  | 253 |  |  | 
3 | O=C(CCCCCCN(c1cnccn1)c1cnccn1)NO [Example A, 7-[Bis(pyrazin-2-yl)amino]-N-hydroxyheptanamide] |  |  | > 1000 | ≤ 100 | 
4 | O=C(CCCCCCN(c1cnccn1)c1ccn2nccc2n1)NO [Example C, N-Hydroxy-7-[(pyrazin-2-yl)({pyrazolo[1,5-a]pyrimidin-5-yl})amino]heptanamide] |  |  | 100 to 1000 | ≤ 100 | 
5 | O=C(CCCCCCN(c1cnccn1)c1ccc(C(F)(F)F)nn1)NO [Example D, N-Hydroxy-7-[(pyrazin-2-yl)[6-(trifluoromethyl)pyridazin-3-yl]amino]heptanamide] |  |  | 100 to 1000 | ≤ 100 | 48.6
6 | COc1ccc(N(CCCCCCC(=O)NO)c2cnccn2)nn1 [Example E, N-Hydroxy-7-[(6-methoxypyridazin-3-yl)(pyrazin-2-yl)amino]heptanamide] |  |  | 100 to 1000 | ≤ 100 | 
7 | O=C(CCCCCCN(c1cnccn1)c1ncncc1F)NO [Example H, 7-[(5-Fluoropyrimidin-4-yl)(pyrazin-2-yl)amino]-N-hydroxyheptanamide] |  |  | > 1000 | ≤ 100 | 
8 | O=C(CCCCCCN(c1ccncn1)c1cnccn1)NO [Example K, N-Hydroxy-7-[(pyrazin-2-yl)(pyrimidin-4-yl)amino]heptanamide] |  |  | 100 to 1000 | 100 to 1000 | 
9 | COCc1cc(N(CCCCCCC(=O)NO)c2nc(C)ns2)ncn1 [Example M, N-hydroxy-7-{[6-(methoxymethyl)pyrimidin-4-yl](3-methyl-1,2,4-thiadiazol-5-yl)amino}heptanamide] |  |  | > 1000 | ≤ 100 | 
10 | Cn1ncc2ncnc(N(CCCCCCC(=O)NO)c3cnccn3)c21 [Example P, N-hydroxy-7-({1-methyl-1H-pyrazolo[4,3-d]pyrimidin-7-yl}(pyrazin-2-yl)amino)heptanamide] |  |  | > 1000 | ≤ 100 | 
11 | O=C(CCCCCCN(c1cncnc1)c1cnccn1)NO [Example R, N-hydroxy-7-[(pyrazin-2-yl)(pyrimidin-5-yl)amino]heptanamide] |  |  | > 1000 | ≤ 100 | 

The next lines start with the values.

Row | clearance [1] [mL/min/kg] | clearance [2] [mL/min/kg] | IC50 [3] [nM] | IC50 [4] [nM] | clearance [5] [mL/min/kg] | SMILES
12 |  |  | > 1000 | ≤ 100 |  | O=C(CCCCCCN(c1cnccn1)c1nccn2ncnc12)NO [Example B]
13 |  |  | 100 to 1000 | ≤ 100 |  | O=C(CCCCCCN(c1cnccn1)c1ccc2nccn2n1)NO [Example F, N-Hydroxy-7-({imidazo[1,2-b]pyridazin-6-yl}(pyrazin-2-yl)amino) heptanamide]
14 |  |  | 100 to 1000 | ≤ 100 |  | Cc1nsc(N(CCCCCCC(=O)NO)c2ccnc(N3CCOCC3)n2)n1 [Example G, N-Hydroxy-7-[(3-methyl-1,2,4-thiadiazol-5-yl)[2-(morpholin-4-yl)pyrimidin-4-yl]amino]heptanamide]
15 |  |  | > 1000 | ≤ 100 |  | CN(C)c1cc(N(CCCCCCC(=O)NO)c2cnccn2)ncn1 [Example I, 7-{[6-(Dimethylamino)pyrimidin-4-yl](pyrazin-2-yl)amino}-N-hydroxyheptanamide]
16 |  |  | > 1000 | ≤ 100 |  | O=C(CCCCCCN(c1cnccn1)c1ncnc2occc12)NO [Example J, 7-({Furo[2,3-d]pyrimidin-4-yl}(pyrazin-2-yl)amino)-N-hydroxyheptanamide]
17 |  |  | 100 to 1000 | ≤ 100 |  | Cc1cc(C(=O)N(C)C)nc(N(CCCCCCC(=O)NO)c2nc(C)ns2)n1 [Example L, 2-{[6-(hydroxycarbamoyl)hexyl](3-methyl-1,2,4-thiadiazol-5-yl)amino}-N,N,6-trimethylpyrimidine-4-carboxamide]
18 |  |  | > 1000 | ≤ 100 |  | Cn1ccc2ncnc(N(CCCCCCC(=O)NO)c3cnccn3)c21 [Example N, N-hydroxy-7-({5-methyl-5H-pyrrolo[3,2-d]pyrimidin-4-yl}(pyrazin-2-yl)amino) heptanamide]
19 |  |  | 100 to 1000 | ≤ 100 |  | CN(C)c1ccc(N(CCCCCCC(=O)NO)c2cnccn2)nn1 [Example O, 7-{[6-(dimethylamino)pyridazin-3-yl](pyrazin-2-yl)amino}-N-hydroxyheptanamide]
20 |  |  | 100 to 1000 | ≤ 100 |  | CN(C)c1cnc(N(CCCCCCC(=O)NO)c2cnccn2)cn1 [Example Q, 7-{[5-(dimethylamino)pyrazin-2-yl](pyrazin-2-yl)amino}-N-hydroxyheptanamide]
21 |  |  | > 1000 | ≤ 100 |  | Cc1noc(N(CCCCCCC(=O)NO)c2cncc(N3CCOCC3)n2)n1 [Example S, N-hydroxy-7-[(3-methyl-1,2,4-oxadiazol-5-yl)[6-(morpholin-4-yl)pyrazin-2-yl]amino]heptanamide]
